Laboratory results as given in ChEMBL document CHEMBL2021794, “Synthesis, σ₁, σ₂-receptors binding affinity and antiproliferative action of new C1-substituted adamantanes” (Bioorg Med Chem, 2012).

What was measured:
[1] = test system: DU-145; assay: Growth inhibition of human DU145 cells after 48 hrs by SRB assay; assay type: functional; details: DU-145, 48 h; for CC50: read-out: LC50 (the source's name)
[2] = test system: U-251; assay: Growth inhibition of human U251 cells after 48 hrs by SRB assay; assay type: functional; details: U-251, 48 h; for CC50: read-out: LC50 (the source's name)
[3] = test system: DMS-114; assay: Growth inhibition of human DMS114 cells after 48 hrs by SRB assay; assay type: functional; details: DMS-114, 48 h; for CC50: read-out: LC50 (the source's name)
[4] = test system: PC-3; assay: Growth inhibition of human PC3 cells after 48 hrs by SRB assay; assay type: functional; details: PC-3, 48 h; for CC50: read-out: LC50 (the source's name)
[5] = Displacement of [3H]BTX-B from Na+ channel site 2 after 60 mins by liquid scintillation spectroscopy
[6] = test system: H69AR; assay: Growth inhibition of human H69AR cells after 48 hrs by SRB assay; assay type: functional; details: for CC50: read-out: LC50 (the source's name)
[7] = target: Sigma non-opioid intracellular receptor 1 (Homo sapiens, UniProt Q99720); assay: Displacement of [3H](+)pentazocine from sigma-1 receptor expressed in human Jurkat cell membranes after 2 hrs by liquid scintillation spectroscopy
Sequence of Sigma non-opioid intracellular receptor 1 (Q99720 whole entry): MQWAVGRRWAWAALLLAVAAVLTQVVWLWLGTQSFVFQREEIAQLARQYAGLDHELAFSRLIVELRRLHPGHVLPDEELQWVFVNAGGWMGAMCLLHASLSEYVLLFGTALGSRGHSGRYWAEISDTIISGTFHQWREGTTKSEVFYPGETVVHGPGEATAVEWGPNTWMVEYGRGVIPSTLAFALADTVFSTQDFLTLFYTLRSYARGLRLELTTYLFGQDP

[8] = test system: BXPC-3; assay: Growth inhibition of human BxPC3 cells after 48 hrs by SRB assay; assay type: functional; details: BXPC-3, 48 h
[9] = test system: HL-60(TB); assay: Growth inhibition of human HL-60(TB) cells after 48 hrs by SRB assay; assay type: functional; details: HL-60, 48 h
[10] = test system: NCI-H69; assay: Growth inhibition of human NCI-H69 cells after 48 hrs by SRB assay; assay type: functional; details: NCI-H69, 48 h; for CC50: read-out: LC50 (the source's name)
[11] = test system: NCI-H460; assay: Growth inhibition of human NCI-H460 cells after 48 hrs by SRB assay; assay type: functional; details: NCI-H460, 48 h
[12] = Growth inhibition of human MSC cells after 48 hrs by SRB assay; assay type: cell-based; details: for GI50 at 48 h: MSC cells; for LC50 / TGI: msc, 48 h
[13] = test system: SF-268; assay: Growth inhibition of human SF268 cells after 48 hrs by SRB assay; assay type: functional; details: SF-268, 48 h
[14] = Selectivity ratio of IC50 for human sigma-1 receptor to IC50 for rat sigma-2 receptor
[15] = test system: IGROV-1; assay: Growth inhibition of human IGROV1 cells after 48 hrs by SRB assay; assay type: functional; details: IGROV-1, 48 h; for CC50: read-out: LC50 (the source's name)
[16] = test system: LOX IMVI; assay: Growth inhibition of human LOXIMVI cells after 48 hrs by SRB assay; assay type: functional
[17] = Displacement of [3H](+)1-DTG from sigma-2 receptor expressed in rat cerebral cortex membranes after 2 hrs by liquid scintillation spectroscopy; assay type: cell membranes, Membrane
[18] = test system: HCT-116; assay: Growth inhibition of human HCT116 cells after 48 hrs by SRB assay; assay type: functional; details: HCT-116, 48 h; for CC50: read-out: LC50 (the source's name)
[19] = test system: OVCAR-5; assay: Growth inhibition of human OVCAR5 cells after 48 hrs by SRB assay; assay type: functional; details: OVCAR-5, 48 h; for CC50: read-out: LC50 (the source's name)
[20] = test system: MCF7; assay: Growth inhibition of human MCF7 cells after 48 hrs by SRB assay; assay type: functional; details: MCF7, 48 h; for CC50: read-out: LC50 (the source's name)
[21] = test system: SK-HEP1; assay: Growth inhibition of human SKHEP1 cells after 48 hrs by SRB assay; assay type: functional; details: SK-HEP1, 48 h; for CC50: read-out: LC50 (the source's name)
[22] = test system: HCT-15; assay: Growth inhibition of human HCT15 cells after 48 hrs by SRB assay; assay type: functional; details: HCT-15, 48 h
[23] = test system: SF-295; assay: Growth inhibition of human SF295 cells after 48 hrs by SRB assay; assay type: functional; details: SF-295, 48 h; for CC50: read-out: LC50 (the source's name)
[24] = test system: NHDF; assay: (§1) Growth inhibition of NHDF cells after 48 hrs by SRB assay; assay type: cell-based; details: human, nhdf, 48 h
[25] = as §1; assay type: cell-based; details: human, NHDF cells
[26] = (§2) Growth inhibition of HUVEC cells after 48 hrs by SRB assay; assay type: cell-based; details: human, HUVEC cells
[27] = test system: HUVEC; assay: as §2; assay type: cell-based; details: human, huvec, 48 h
[28] = test system: BXPC-3; assay: Antitumor activity against human BxPC3 cells xenografted in SCID mouse assessed as tumor weight at 17 mg/kg, ip twice a week (reference value: 723 +/- 45 mg); assay type: functional; details: route intraperitoneal
[29] = test system: MIA PaCa-2; assay: Growth inhibition of human MIAPaCa2 cells after 48 hrs by SRB assay; assay type: functional; details: MIA PaCa-2, 48 h; for CC50: read-out: LC50 (the source's name)
[30] = test system: BXPC-3; assay: Antitumor activity against human BxPC3 cells xenografted in SCID mouse assessed as reduction in tumor volume at 17 mg/kg, ip twice a week; assay type: functional; details: BXPC-3, ip, route intraperitoneal
[31] = test system: MIA PaCa-2; assay: Antitumor activity against human MIAPaCa2 cells xenografted in SCID mouse assessed as reduction in tumor volume at 70 mg/kg, ip twice a week; details: MIA PaCa-2, ip, read-out: INH
[32] = test system: MIA PaCa-2; assay: Antitumor activity against human MIAPaCa2 cells xenografted in SCID mouse assessed as tumor weight at 70 mg/kg, ip twice a week (reference value: 1225 +/- 308 mg); assay type: functional; details: route intraperitoneal

Question: Which results are given for CCN1CCN(c2ccc(C(c3ccccc3)C34CC5CC(CC(C5)C3)C4)cc2)CC1 (stereo not drawn)?
Answer: GI50 [1]: 17.8 µM; TGI [1]: 58.7 µM; CC50 [1]: 99.6 µM; GI50 [2]: 4.23 µM; TGI [2]: 7.42 µM; CC50 [2]: 12 µM; GI50 [3]: 6.05 µM; TGI [3]: 11.6 µM; CC50 [3]: 20.3 µM; GI50 [4]: 9.01 µM; TGI [4]: 65.6 µM; CC50 [4]: 100 µM; IC50 [5]: 0.7 µM; GI50 [6]: 4.75 µM; TGI [6]: 7.82 µM; CC50 [6]: 100 µM; IC50 [7]: 0.0029 µM; GI50 [8]: 7.07 µM; LC50 [8]: > 100 µM; TGI [8]: 41.6 µM; GI50 [9]: 6.39 µM; LC50 [9]: 100 µM; TGI [9]: 100 µM; GI50 [10]: 5.54 µM; CC50 [10]: 100 µM; GI50 [11]: 5.77 µM; LC50 (concentration killing 50% of cells) [11]: 100 µM; TGI [11]: 9.44 µM; GI50 at 48 h [12]: 19.5 µM; LC50 [12]: 100 µM; TGI [12]: 72 µM; GI50 [13]: 8.24 µM; TGI [13]: 53.5 µM; CC50 ([13]; read-out: LC50 (the source's name)): 100 µM; Ratio IC50 [14]: 1.4; GI50 [15]: 8 µM; TGI [15]: 49 µM; CC50 [15]: 100 µM; GI50 [16]: 3.79 µM; LC50 (concentration killing 50% of cells) [16]: 8.4 µM; TGI [16]: 6.09 µM; IC50 [17]: 0.004 µM; GI50 [18]: 6.39 µM; TGI [18]: 32.9 µM; CC50 [18]: 100 µM; GI50 [19]: 6 µM; TGI [19]: 24.5 µM; CC50 [19]: 77.8 µM; GI50 [20]: 9.23 µM; TGI [20]: 59 µM; CC50 [20]: 100 µM; GI50 [21]: 3.98 µM; TGI [21]: 7.24 µM; CC50 [21]: 29.8 µM; GI50 [22]: 6.63 µM; LC50 [22]: 100 µM; TGI [22]: 41.2 µM; GI50 [23]: 19.6 µM; TGI [23]: 50.9 µM; CC50 [23]: 82.2 µM; LC50 [24]: 100 µM; TGI [24]: 100 µM; GI50 at 48 h [25]: 7.43 µM; GI50 at 48 h [26]: 3.56 µM; LC50 [27]: 9.88 µM; TGI [27]: 6.72 µM

Question: With O=c1[nH]cc(F)c(=O)[nH]1 [FLUOROURACIL] as the molecule, how does the GI50 [1] read?
Answer: 9.37 µM

Question: And the TGI [1]?
Answer: 100 µM

Question: And the CC50 [1]?
Answer: 100 µM

Question: And the GI50 [2]?
Answer: 82 µM

Question: And the TGI [2]?
Answer: 100 µM

Question: What about the CC50 [2] of the same molecule?
Answer: 100 µM

Question: And the GI50 [3]?
Answer: 100 µM

Question: And the TGI [3]?
Answer: 100 µM

Question: And the CC50 [3]?
Answer: 100 µM

Question: And the GI50 [4]?
Answer: 21 µM

Question: What about the TGI [4] of the same molecule?
Answer: 100 µM

Question: And the CC50 [4]?
Answer: 100 µM

Question: What about the GI50 [6] of the same molecule?
Answer: 100 µM

Question: And the TGI [6]?
Answer: 100 µM

Question: What about the CC50 [6] of the same molecule?
Answer: 100 µM

Question: And the GI50 [8]?
Answer: 8.2 µM

Question: And the TGI [8]?
Answer: 100 µM

Question: What about the GI50 [9] of the same molecule?
Answer: 100 µM

Question: What about the TGI [9] of the same molecule?
Answer: 100 µM

Question: And the GI50 [10]?
Answer: 100 µM

Question: And the TGI [10]?
Answer: 100 µM

Question: And the CC50 [10]?
Answer: 100 µM

Question: And the GI50 [11]?
Answer: 6.5 µM

Question: What about the TGI [11] of the same molecule?
Answer: 100 µM

Question: What about the GI50 at 48 h [12] of the same molecule?
Answer: 8.92 µM

Question: And the LC50 [12]?
Answer: 100 µM

Question: What about the TGI [12] of the same molecule?
Answer: 86.06 µM

Question: And the GI50 [15]?
Answer: 9.1 µM

Question: And the TGI [15]?
Answer: 100 µM

Question: And the CC50 [15]?
Answer: 100 µM

Question: And the GI50 [18]?
Answer: 9.9 µM

Question: And the TGI [18]?
Answer: 100 µM

Question: And the CC50 [18]?
Answer: 100 µM

Question: And the GI50 [19]?
Answer: 20 µM

Question: And the TGI [19]?
Answer: 100 µM

Question: What about the CC50 [19] of the same molecule?
Answer: 100 µM

Question: What about the GI50 [20] of the same molecule?
Answer: 9.9 µM

Question: And the TGI [20]?
Answer: 100 µM

Question: What about the CC50 [20] of the same molecule?
Answer: 100 µM

Question: And the Activity [28]?
Answer: 700%

Question: And the GI50 [21]?
Answer: 6.3 µM

Question: What about the TGI [21] of the same molecule?
Answer: 100 µM

Question: What about the CC50 [21] of the same molecule?
Answer: 100 µM

Question: And the GI50 [29]?
Answer: 30 µM

Question: What about the TGI [29] of the same molecule?
Answer: 100 µM

Question: And the CC50 [29]?
Answer: 100 µM

Question: And the GI50 [22]?
Answer: 21 µM

Question: And the TGI [22]?
Answer: 100 µM

Question: And the GI50 [23]?
Answer: 76 µM

Question: What about the TGI [23] of the same molecule?
Answer: 100 µM

Question: And the CC50 [23]?
Answer: 100 µM

Question: What about the inhibition in vivo at 17 mg/kg [30] of the same molecule?
Answer: 3.25%

Question: What about the GI50 at 48 h [26] of the same molecule?
Answer: 9.72 µM

Question: And the LC50 [27]?
Answer: 100 µM

Question: And the TGI [27]?
Answer: 100 µM

Question: What does the source list for Nc1ccn([C@@H]2O[C@H](CO)[C@@H](O)C2(F)F)c(=O)n1 [GEMCITABINE]?
Answer: GI50 [8]: 3.64 µM; TGI [8]: 9.05 µM; inhibition in vivo at 70 mg/kg [31]: 56.2%; Activity [32]: 537 mg; GI50 [29]: 35.8 µM; TGI [29]: 100 µM; CC50 [29]: 100 µM
